# Source: patent US20230332232A1, “COMPOSITIONS AND METHODS FOR DIAGNOSING AND TREATING A DYSTONIA” (Duke University, priority 2020, published 2023)
# Test system: DYT1 knockin (Tor1a^delGAG/+) murine embryonic fibroblasts (MEFs)
# Test: microRNA-seq of EVs from DYT1 MEFs treated with drug, compared with non-treated DYT1 MEFs
# Format: cell-based, mouse
# Conditions: for Sal Direction Opposite ISRIB?: EVs of DYT1 (Het) MEFs
# Protocol: In addition to proteomic analysis, total RNA-seq and microRNA-seq was performed on RNA isolated in parallel from the EV samples of Cohort 2. As with the proteomic analysis, one biological replicate was prepared from 3 distinct biological clonal cell lines for each genotype. Here, EVs were isolated from conditioned cell culture media by 18 hour ultracentrifugation at 100,000 g. RNA was extracted using the Qiagen miRNeasy Micro Kit (Cat. No. 217084) according to the manufacturer's protocol. Two RNA fractions were extracted from each sample, one enriched in coding and non-coding RNA species>200 nt (“Total RNA” fraction) and one enriched for small RNAs<200 nt (“miRNA” fraction). RNA samples were then submitted to the Duke Sequencing and Genomic Technologies shared resource for further quality control and sequencing. Samples were assessed for concentration and integrity by Qubit and Fragment Analyzer. The miRNA fractions were 4.16 ng/μL-47.57 ng/μL and total RNA fractions were 3.8 ng/μL-43.6 ng/μL. The small RNA library was prepared using the QIAseq miRNA Library Kit (Cat No./ID: 331505) and sequenced on the Illumina NextSeq 500 High-Output platform with 75 bp single-reads. The total RNA library was prepared using the Illumina TruSeq Stranded Total RNA-seq Kit with Ribozero Gold ribosomal RNA reduction and sequenced on the Illumina NovaSeq 6000 S1 platform with 100 bp paired-end reads. Sequencer lane pooling and read depth are attached in the Excel data summary (See “RNA QC” Tab). Data processing and analysis were performed in collaboration with the Duke Genomic Analysis and Bioinformatics shared resource. RNA-seq data was processed using the TrimGalore toolkit (http://www.bioinformatics.babraham.ac.uk/projects/trim_galore), which employs Cutadapt(Martin M. (2011) EMBnet.journal. 17(1):10-12) to trim low quality bases and Illumina sequencing adapters from the 3' end of the reads. Only reads that were 20 nt or longer after trimming were kept for further analysis. Reads were mapped to the mouse genome and transcriptome ([…], et al. (2012) Nucleic Acids Res. 40(Database issue):[…]-97) using the STAR RNA-seq alignment tool (Dobin A, et al. (2013). Bioinformatics. 29(1):15-21). If the reads mapped to a single genomic location, then they were kept for subsequent analysis. Gene counts were compiled using the HTSeq tool (http://www-huber.embl.de/users/anders/HTSeq/). Only genes that had at least 10 reads in any given library were used in subsequent analysis. Normalization and differential expression was carried out using the DESeq26 Bioconductor (Huber W, et al. (2015) Nat Methods. 12(2):115-121) package with the R statistical programming environment (www.r-project.org). […] 694 miRNAs were initially examined with respect to QC, genotype, RTV effects, and ISRIB effects. This subset was the “Full miRNA” subset. FIG. 9A and FIG. 9B show the RTV effect on EV composition in DYT1 cells compared to WT cells for 279 miRNAs, respectively. […] Beginning with the 694 miRNAs in the “Full miRNA” subset, more than 60 molecules were detected in either WT cells or DYT1 cells (WT or Het UMI>60). […] The candidate miRNAs were ranked by the sum of genotype-dependent absolute Z-scores and RTV-induced absolute Z-scores (Abs Z Score Sum (Geno+RTV)). This subset was the “miRNA-Ritonavir Therapeutic Efficacy” subset and contained 201 miRNAs.
# [1] = SAL-treated vs non-treated DYT1 (Het) MEF EVs
structure (smiles),measurement,setting,value
"O=C(/C=C/c1ccccc1)NC(NC(=S)Nc1cccc2cccnc12)C(Cl)(Cl)Cl (centres unmarked) [SAL, Salubrinal]",mmu-miR-147-5p: SALvHet Z Score,[1],−0.16
same,mmu-miR-181a-1-3p: SALvHet Z Score,[1],−0.12
same,mmu-miR-181a-1-3p: Sal Direction Opposite ISRIB?,[1],yes
same,mmu-miR-331-5p: SALvHet Z Score,[1],0.66
same,mmu-miR-668-3p: SALvHet Z Score,[1],0.34
same,mmu-miR-1930-5p: SALvHet Z Score,[1],−1.60
same,mmu-miR-1943-5p: SALvHet Z Score,[1],−0.08
same,mmu-miR-1955-5p: SALvHet Z Score,[1],1.06
same,mmu-miR-3072-5p: SALvHet Z Score,[1],0.00
same,mmu-miR-3076-3p: SALvHet Z Score,[1],0.00
same,mmu-miR-3088-3p: SALvHet Z Score,[1],−1.34
same,mmu-miR-6936-3p: SALvHet Z Score,[1],−0.71
same,mmu-miR-6936-3p: Sal Direction Opposite ISRIB?,[1],yes
same,mmu-miR-7224-3p: SALvHet Z Score,[1],0.30
same,mmu-miR-7224-3p: Sal Direction Opposite ISRIB?,[1],yes
same,mmu-miR-467d-3p: SALvHet Z Score,[1],−0.01
same,SALvHet Z Score,mmu-let-7a-1-3p,0.28
same,SALvHet Z Score,mmu-let-7c-2-3p,0.28
same,SALvHet Z Score,mmu-let-7g-5p,−0.16
same,SALvHet Z Score,mmu-let-7i-3p,0.35
same,Sal Direction Opposite ISRIB?,mmu-miR-30e-5p,yes
same,SALvHet Z Score,mmu-miR-30e-3p,−0.06
same,SALvHet Z Score,mmu-miR-15a-5p,0.17
same,SALvHet Z Score,mmu-miR-16-5p,−0.01
same,SALvHet Z Score,mmu-miR-17-3p,0.10
same,Sal Direction Opposite ISRIB?,mmu-miR-19b-3p,yes
same,SALvHet Z Score,mmu-miR-22-3p,0.17
same,Sal Direction Opposite ISRIB?,mmu-miR-22-3p,yes
same,SALvHet Z Score,mmu-miR-23a-3p,0.05
same,SALvHet Z Score,mmu-miR-25-3p,−0.04
same,Sal Direction Opposite ISRIB?,mmu-miR-26b-Sp,yes
same,SALvHet Z Score,mmu-miR-29b-3p,0.38
same,SALvHet Z Score,mmu-miR-29c-3p,0.40
same,SALvHet Z Score,mmu-miR-30a-5p,−0.09
same,SALvHet Z Score,mmu-miR-30b-5p,0.15
same,SALvHet Z Score,mmu-miR-30c-5p (1st line so named),0.42
same,SALvHet Z Score,mmu-miR-30c-5p (2nd line so named),0.07
same,Sal Direction Opposite ISRIB?,mmu-miR-30c-5p,yes
same,SALvHet Z Score,mmu-miR-31-3p,−0.03
same,SALvHet Z Score,mmu-miR-31-5p,−0.14
same,SALvHet Z Score,mmu-miR-32-5p,0.26
same,SALvHet Z Score,mmu-miR-33-5p,0.26
same,SALvHet Z Score,mmu-miR-34a-5p,−0.03
same,SALvHet Z Score,mmu-miR-34b-5p,0.38
same,SALvHet Z Score,mmu-miR-34c-3p,−0.37
same,SALvHet Z Score,mmu-miR-34c-5p,0.07
same,Sal Direction Opposite ISRIB?,mmu-miR-34c-5p,yes
same,SALvHet Z Score,mmu-miR-96-5p,0.13
same,Sal Direction Opposite ISRIB?,mmu-miR-96-5p,yes
same,SALvHet Z Score,mmu-miR-98-5p,−0.22
same,SALvHet Z Score,mmu-miR-99a-5p,−0.17
same,SALvHet Z Score,mmu-miR-101b-3p,0.64
same,SALvHet Z Score,mmu-miR-106b-3p,−0.23
same,SALvHet Z Score,mmu-miR-106b-5p,0.04
same,SALvHet Z Score,mmu-miR-124-3p,−0.72
same,SALvHet Z Score,mmu-miR-125b-1-3p,−0.41
same,SALvHet Z Score,mmu-miR-130b-3p,0.32
same,Sal Direction Opposite ISRIB?,mmu-miR-130b-3p,yes
same,Sal Direction Opposite ISRIB?,mmu-miR-135a-5p,yes
same,SALvHet Z Score,mmu-miR-136-3p,0.08
same,SALvHet Z Score,mmu-miR-140-3p,0.50
same,Sal Direction Opposite ISRIB?,mmu-miR-140-3p,yes
same,SALvHet Z Score,mmu-miR-146a-5p,0.02
same,SALvHet Z Score,mmu-miR-148a-3p,−0.02
same,SALvHet Z Score,mmu-miR-148b-3p,−0.07
same,SALvHet Z Score,mmu-miR-149-5p,0.03
same,SALvHet Z Score,mmu-miR-151-5p,0.12
same,SALvHet Z Score,mmu-miR-152-3p,−0.02
same,SALvHet Z Score,mmu-miR-181a-5p,−0.23
same,SALvHet Z Score,mmu-miR-181b-5p,−0.32
same,SALvHet Z Score,mmu-miR-181c-5p,0.26
same,SALvHet Z Score,mmu-miR-182-5p,0.01
same,Sal Direction Opposite ISRIB?,mmu-miR-182-5p,yes
same,SALvHet Z Score,mmu-miR-183-5p,−0.06
same,SALvHet Z Score,mmu-miR-185-5p,0.15
same,SALvHet Z Score,mmu-miR-186-5p,0.00
same,SALvHet Z Score,mmu-miR-187-3p,0.30
same,Sal Direction Opposite ISRIB?,mmu-miR-187-3p,yes
same,SALvHet Z Score,mmu-miR-188-5p,−0.05
same,SALvHet Z Score,mmu-miR-190b-5p,0.15
same,SALvHet Z Score,mmu-miR-191-5p,0.04
same,SALvHet Z Score,mmu-miR-192-5p,0.09
same,Sal Direction Opposite ISRIB?,mmu-miR-192-5p,yes
same,SALvHet Z Score,mmu-miR-194-5p,0.18
same,SALvHet Z Score,mmu-miR-199a-3p,−0.10
same,SALvHet Z Score,mmu-miR-199b-3p,−0.10
same,SALvHet Z Score,mmu-miR-206-3p,−0.27
same,SALvHet Z Score,mmu-miR-214-5p,0.04
same,SALvHet Z Score,mmu-miR-219a-5p,0.34
same,SALvHet Z Score,mmu-miR-223-3p,−0.01
same,SALvHet Z Score,mmu-miR-224-5p,−0.27
same,SALvHet Z Score,mmu-miR-296-3p,0.05
same,Sal Direction Opposite ISRIB?,mmu-miR-296-3p,yes
same,SALvHet Z Score,mmu-miR-298-5p,0.16
same,Sal Direction Opposite ISRIB?,mmu-miR-298-5p,yes
same,SALvHet Z Score,mmu-miR-299a-3p,0.39
same,SALvHet Z Score,mmu-miR-301a-3p,0.35
same,SALvHet Z Score,mmu-miR-301b-3p,0.01
same,SALvHet Z Score,mmu-miR-320-3p,−0.21
same,SALvHet Z Score,mmu-miR-322-5p,−0.07
same,SALvHet Z Score,mmu-miR-324-3p,0.16
same,SALvHet Z Score,mmu-miR-335-Sp,−0.35
same,SALvHet Z Score,mmu-miR-340-5p,0.31
same,SALvHet Z Score,mmu-miR-344-3p,0.44
same,Sal Direction Opposite ISRIB?,mmu-miR-344-3p,yes
same,SALvHet Z Score,mmu-miR-350-3p,0.08
same,SALvHet Z Score,mmu-miR-361-5p,−0.15
same,SALvHet Z Score,mmu-miR-362-3p,0.47
same,Sal Direction Opposite ISRIB?,mmu-miR-362-3p,yes
same,SALvHet Z Score,mmu-miR-362-5p,−0.10
same,SALvHet Z Score,mmu-miR-378a-3p,−0.12
same,SALvHet Z Score,mmu-miR-450a-5p,0.09
same,SALvHet Z Score,mmu-miR-450b-3p,−0.29
same,SALvHet Z Score,mmu-miR-451a,0.38
same,SALvHet Z Score,mmu-miR-483-5p,−1.22
same,SALvHet Z Score,mmu-miR-500-3p,0.10
same,SALvHet Z Score,mmu-miR-503-3p,−0.70
same,SALvHet Z Score,mmu-miR-532-5p,−0.06
same,SALvHet Z Score,mmu-miR-542-3p,0.33
same,SALvHet Z Score,mmu-miR-542-5p,0.39
same,Sal Direction Opposite ISRIB?,mmu-miR-542-5p,yes
same,SALvHet Z Score,mmu-miR-582-3p,−0.45
same,SALvHet Z Score,mmu-miR-652-3p,0.34
same,SALvHet Z Score,mmu-miR-671-5p,0.26
same,Sal Direction Opposite ISRIB?,mmu-miR-671-5p,yes
same,SALvHet Z Score,mmu-miR-700-3p,0.16
same,SALvHet Z Score,mmu-miR-708-5p,0.58
same,SALvHet Z Score,mmu-miR-872-5p,0.19
same,SALvHet Z Score,mmu-miR-1291,−0.06
same,SALvHet Z Score,mmu-miR-1843a-5p,0.07
same,SALvHet Z Score,mmu-miR-3102-3p,0.35
same,SALvHet Z Score,mmu-miR-3535,−0.66
same,SALvHet Z Score,mmu-miR-5121,0.22
same,Sal Direction Opposite ISRIB?,mmu-miR-5121,yes
same,Sal Direction Opposite ISRIB?,mmu-miR-30h-5p,yes
same,SALvHet Z Score,mmu-miR-30d-5p,−0.11
same,SALvHet Z Score,mmu-miR-344d-3p,−1.00
